Drawing on the supplement of paper PMC10290057, this text covers efficacy for 65 molecules.

Where a name gives a salt, the structure may show the parent alone.
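Note: Luminescence-based viability readout, five doses per compound, normalized against on-plate DMSO and empty-well controls, followed by dose-response curve fitting for every drug.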

The subject of this assay is HCT116. Nature of the assay: efficacy (fitted maximal change in viability relative to DMSO control); higher = less cytotoxic (negative = loss of viability). The note with it: 48 h.
On to `CC(=O)O[C@@]12CO[C@@H]1C[C@H](O)[C@]3(C)[C@@H]2[C@H](OC(=O)C4=CC=CC=C4)[C@]5(O)C[C@H](O)/C(=C(/[C@@H](O)C3=O)C5(C)C)C` [10-Deacetylbaccatin], for which the efficacy was -50.2%.

Consider `CCC(=O)O[C@@]1(CC[C@H]2[C@@H]3CCC/4=C/C(=O)CC[C@]4(C)[C@H]3CC[C@]12C)C(=O)CO` [17 alpha-propionate], for which the efficacy was -15.6%.

Regarding `CC(C)[C@H]1C(=O)N[C@H](CO)Cc2c[nH]c3cccc(c23)N1C` [(-)-Indolactam V], the efficacy came to 9.83%.

With `O=C([C@@H](Cc1cccc(C(F)(F)F)c1)N[S+](=O)([O-])c1cc(F)c2c(c1)CCNC2)N1CCCC1` [(R)-PFI-2], the efficacy is -23.9%.

Consider `O=C1c2c(O)cc(O)cc2O[C@H](c2ccc(O)c(O)c2)[C@H]1O` [(▒)-Taxifolin], for which the efficacy came out at 4.75%.

Take `Cc1cccc(-c2nn(C(=S)Nc3ccccc3)cc2-c2ccnc3ccccc23)n1` [A-83-01]: the efficacy is -22.3%.

In the case of `Clc1cc2c(NC3CCCC3)nnc(-c3ccncc3)c2cc1Cl` [A-196], the efficacy is 14.4%.

Take `COC1=CC2=C(C=C1OCCCN3CCCC3)\N=C(N)/C24CCC4` [A-366]: the efficacy worked out at 8%.

`CC(=O)NCCCS(=O)(=O)[O-]` [ACAMPROSATE CALCIUM]: the efficacy was 8.04%.

Regarding `COCc1c(-c2ccc(NC(=O)Nc3cc(C(F)(F)F)ccc3F)c(F)c2)c2c(N)ncnn2c1CN1CCOCC1` [ACTB-1003], the efficacy was -76%.

With `N#Cc1ccnc(N2C(=O)CC[C@H]2C(=O)N(c2cncc(F)c2)C(C(=O)NC2CC(F)(F)C2)c2ccccc2Cl)c1` (stereo not given in full) [AG-120], the efficacy was -22.2%.

In the case of `C[C@H](Nc1nc(N[C@H](C)C(F)(F)F)nc(-c2cccc(Cl)n2)n1)C(F)(F)F` [AG-881], the efficacy was -28.1%.

For the molecule `Cc1ccccc1C(C(=O)NC1CCCCC1)N(C(=O)Cn1ccnc1C)c1cccc(F)c1` (stereo not given) [AGI-5198], the efficacy was -18.4%.

With `c1ccc(CNCc2ccc(CN3CCCNCCNCCCNCC3)cc2)nc1` [AMD-3465], the efficacy was -13.1%.

With `CN1N(C2=CC=CC=C2)C(=O)C(=C1/C3=CC=CC=C3)/C(=O)C4=CC=C(C)C(=C4N)C5=CC=C6N=C(C)C=CC6=C5` [AMG PERK 44], the efficacy was -31.8%.

For the molecule `COCCOC1=CN=C2\C=C/N([C@H](C)C3=NN=C4[N]3C=C(C=C4F)C5=C[N](C)N=C5)C(=O)C2=C1` [AMG-337], the efficacy was -4.95%.

For the molecule `C[C@H]1CC[C@H](n2c3cnccc3c3cnc(Nc4ccc5c(n4)CCN(C(=O)CO)C5)nc32)CC1` [AMG-925 (FLX925)], the efficacy was -21.6%.

Consider `N=C(N)NN.N=C(N)NN.O=S(=O)(O)O` [AMINOGUANIDINE HYDROCHLORIDE], for which the efficacy is -9.44%.

As to `N#Cc1ccc(Oc2ccc3c(c2)COB3O)cc1` [AN-2728], the efficacy was -21.2%.

For the molecule `COCC1(CO)C(=O)C2CCN1CC2` (stereo not given) [APR-246], the efficacy is -7.36%.

As to `Cc1cc(O)cc2c1[C@]1(C)CC[C@H]3C(C)(C)CCC[C@]3(C)[C@H]1C2` [AQX-MN-100], the efficacy was 19.8%.

On to `CC1=CC=C(C=C1)\C2=N\C3=CC=C(Cl)C=C3OC2` [AR-7], for which the efficacy is -31.7%.

Consider `CC(C)[C@H](C(=O)Nc1ccc(C(=O)NO)cc1)c1ccccc1` [AR-42], for which the efficacy was -43.8%.

As for `C=CC(=O)N1CC(N2CCN(C(=O)CNc3cc(C4(C)CC4)c(Cl)cc3O)CC2)C1` [ARS-853], the efficacy was -63.4%.

For `CN[C@@H](C)C(=O)N[C@H]1CN(C(=O)CC(C)C)CC[C@H]2CC[C@@H](C(=O)NC(c3ccccc3)c3ccccc3)N2C1=O` [AT-406], the efficacy was -8.4%.

Regarding `C[C@@H]1CN(CC(=O)N2CC(C)(C)c3ncc(Cc4ccc(F)cc4)cc32)[C@@H](CN2CCOC[C@H]2C)CN1` [AT-IAP], the efficacy was -62.8%.

For the molecule `CC(=O)N1CCC[C@H]1C(=O)N[C@@H](Cc1c[nH]cn1)C(=O)N[C@@H](CO)C(=O)N[C@@H](CS)C(=O)N[C@@H](CC(N)=O)C(N)=O` [ATN-161], the efficacy is -6.15%.

As for `COC1=CC2=C(OC\C(=C2\C3=CC=C(F)C=C3)CN4CCCC4)C=C1` [AX-024], the efficacy was -55.9%.

Take `CCN(CCCOc1ccc2c(Nc3cc(CC(=O)Nc4cccc(F)c4)[nH]n3)ncnc2c1)CCOP(=O)(O)O` [AZD1152]: the efficacy was -24.9%.

Take `C[N]1N=CC=C1C/2=C(\C)N(C(=O)C(=C2)/C(=O)NCC3=NC=C(C=C3)[S+](C)([O-])=O)C4=CC=CC(=C4)C(F)(F)F` [AZD9668]: the efficacy was 12.5%.

With `NC(=O)c1cnc(-c2ccc(C3(N)CCC3)cc2)c(-c2ccccc2)c1` [AZD-26], the efficacy is -66.9%.

Turning to `COC1CCN(CC1)C(=O)C2=CC(=CC=C2F)CC/3=N/NC(=O)C4=CC=CC=C34` [AZD-2461], the efficacy was -29.2%.

`Cc1noc(C)c1-c1ccc(-c2cc(C(N)=O)c(NC(N)=O)s2)c(O[C@H]2CCNC2)c1` [AZD-3264]: the efficacy is -40.3%.

For `COc1cc2ncnc(Nc3cccc(Cl)c3F)c2cc1OC(=O)N1CCN(C)C[C@H]1C` [AZD-3759], the efficacy is -38.2%.

With `Cc1[nH]nc(C(F)(F)F)c1Cc1sc2c(c1C(=O)N1C[C@](C)(O)CO1)c(=O)n(C)c(=O)n2C(C)C` [AZD-3965], the efficacy was -11.2%.

Regarding `CC(C)C[C@H](CO)Nc1nc(S[C@@H](C)c2ccccc2)nc2nc(N)sc12` [AZD-8797], the efficacy is -86.1%.

`CCn1nc(C2CCN(C(=O)CCO)CC2)nc1-c1cnc(N)c(-c2nnc(C(C)(C)C)o2)n1` [AZD-8835]: the efficacy was -18.9%.

On to `C[C@@H]1Cc2c([nH]c3ccccc23)[C@@H](c2c(F)cc(/C=C/C(=O)O)cc2F)N1CC(C)(C)F` [AZD-9496 maleate], for which the efficacy was -13.1%.

On to `C[C@]\12CC[C@H](O)CC1=C/C[C@@H]3[C@@H]2CC[C@@]\4(C)[C@H]3C\C=C4C5=CN=CC=C5` [Abiraterone], for which the efficacy stood at 7.6%.

Consider `CC(=O)NCCC(=O)N[C@@H](CCC(N)=O)C(=O)N[C@@H](CO)C(=O)N[C@@H](CCC(N)=O)C(=O)N[C@@H](CCC(N)=O)C(=O)N[C@H](C(=O)N[C@@H](Cc1ccccc1)C(=O)N[C@]1(C)CCCCCC/C=C\CCC[C@@](C)(C(=O)N[C@@H](CCC(N)=O)C(=O)N[C@@H](CC(N)=O)C(N)=O)NC(=O)[C@H](CC(C)C)NC(=O)[C@H](CC(C)C)NC(=O)[C@@H](CCCNC(=N)N)NC(=O)[C@H](Cc2c[nH]c3ccccc23)NC(=O)[C@H](CC(C)C)NC(=O)[C@H](CC(N)=O)NC1=O)[C@H](C)O` [Ac-SAH-p53-8], for which the efficacy was -6.69%.

Take `NC(=O)c1ncn([C@@H]2O[C@H](CO)[C@@H](O)[C@H]2O)c1N` [Acadesine]: the efficacy is 7.93%.

`CC#CC(=O)N1CCC[C@H]1c1nc(-c2ccc(C(=O)Nc3ccccn3)cc2)c2c(N)nccn12` [Acalabrutinib]: the efficacy was -13.7%.

Consider `C[C@H](NC1=NC=NC2=C1[NH]C=N2)\C3=N\C4=C(C=C(F)C=C4)C(=O)N3C5=CC=CC=C5` [Acalisib], for which the efficacy was -38.2%.

In the case of `CC(=O)Nc1ccc(O)cc1` [Acetaminophen], the efficacy was determined as 8.22%.

With `N\C1=N\C2=C(N=C[N]2COCCO)C(=O)N1` [Aciclovir], the efficacy is -8.84%.

With `Cc1cnc(C(=O)O)c[n+]1[O-]` [Acipimox], the efficacy is -8.25%.

Consider `O=C(O)C(=O)Nc1cccc(-c2nnn[nH]2)c1` [Acitazanolast], for which the efficacy is 17%.

For `COc1cc(C)c(/C=C/C(C)=C/C=C/C(C)=C/C(=O)O)c(C)c1C` [Acitretin], the efficacy was -17.3%.

In the case of `COc1ccc(-c2ccc3cc(C(=O)O)ccc3c2)cc1C12CC3CC(CC(C3)C1)C2` [Adapalene], the efficacy was 9.71%.

For the molecule `COC(=O)N1CC2(CC2)C[C@H](C(=O)NO)[C@H]1C(=O)N1CCN(c2ccccc2)CC1` [Aderbasib], the efficacy is -17%.

For `COc1ccc2cccc(CCNC(C)=O)c2c1` [Agomelatine], the efficacy was -12.5%.

Regarding `CN(C)CC(C)(C)CNc1nn2c(-c3ccccc3)nnc2cc1C1CCC1` [Akt-I-1], the efficacy is -8.48%.

On to `CN(C)CCc1c[nH]c2ccc(C[S+](=O)([O-])N3CCCC3)cc12` [Almotriptan], for which the efficacy was -6.46%.

As to `CCOC(=O)[C@H]1O[C@@H]1C(=O)N[C@@H](CC(C)C)C(=O)NCCC(C)C` [Aloxistatin], the efficacy is -5.94%.

Take `CCCCC[C@H](O)/C=C/[C@H]1[C@H](O)CC(=O)[C@@H]1CCCCCCC(=O)O` [Alprostadil]: the efficacy was -12.3%.

With `O=C(Nc1cc(Oc2cc(F)c(NC(=O)C3(C(=O)Nc4ccc(F)cc4)CC3)cc2F)ccn1)C1CC1` [Altiratinib], the efficacy was -68.8%.

`CN(C)c1nc(N(C)C)nc(N(C)C)n1` [Altretamine]: the efficacy was -12.2%.

On to `NC12CC3CC(CC(C3)C1)C2` [Amantadine hydrochloride], for which the efficacy was -15.1%.

Consider `COC(c1ccccc1)(c1ccccc1)[C@H](Oc1nc(C)cc(C)n1)C(=O)O` [Ambrisentan], for which the efficacy was -8.06%.

Consider `N=C(N)NC(=O)c1nc(Cl)c(N)nc1N` [Amiloride hydrochloride], for which the efficacy was -10.8%.

Consider `NCCCCCC(=O)O` [Aminocaproic acid], for which the efficacy was -11.3%.

Turning to `CCN1CCCC1CNC(=O)c1cc([S+](=O)([O-])CC)c(N)cc1OC` (stereo not given) [Amisulpride], the efficacy was -6.46%.

As for `CC(C)c1ccc2oc3nc(N)c(C(=O)O)cc3c(=O)c2c1` [Amlexanox], the efficacy is -24.9%.

In the case of `CC1(C)[C@@H](O[C@H]2O[C@H](C(=O)O)[C@@H](O)[C@H](O)[C@H]2O[C@@H]2O[C@H](C(=O)O)[C@@H](O)[C@H](O)[C@H]2O)CC[C@]2(C)[C@H]3C(=O)C=C4[C@@H]5C[C@@](C)(C(=O)O)CC[C@]5(C)CC[C@@]4(C)[C@]3(C)CC[C@@H]12` [Ammonium Glycyrrhizinate], the efficacy is 7.39%.

For `CCC(C)(C)c1ccc(CC(C)CN2C[C@@H](C)O[C@@H](C)C2)cc1` (stereo not given in full) [Amorolfine hydrochloride], the efficacy is -10%.
